Measurements reported in US20240158393A1, “PYRIDONE COMPOUNDS AND METHODS OF USE” (Exelixis, Inc., priority 2021, published 2024).

How the values were obtained:
[1] = molecular target: T1, Human Met (Homo sapiens, UniProt P08581); test: Human Met kinase assay (33P radiometric / HTRF KinEase); format: biochemical; settings: protocols of Examples D-1 and/or D-2; read-out: c-Met IC50
T1 construct: Human MET (residues 956-1390)
Procedure, shortened: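 Two formats gave IC50s by curve fitting. HTRF KinEase used MET residues 956-1390 with 1 μM biotin-peptide and 3.0 μM ATP (Km) for 40 min at room temperature, ten doses in 3% DMSO, 665/620 nm read. The 33P transfer assay used mutant Met R974-S1390 A1209G/V1290L (3.4 nM), 10 μM ATP, 250 μM peptide, pH 7.0, 40 min, nine doses from 1 μM.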

[2] = molecular target: T2, Human Axl (Homo sapiens, UniProt P30530); test: Human AXL kinase assay (33P radiometric / HTRF KinEase); format: biochemical; settings: protocols of Examples A-1 and/or A-2
T2 construct: Human AXL (residues 464-885)
T2 sequence (P30530 1-894 Q764R): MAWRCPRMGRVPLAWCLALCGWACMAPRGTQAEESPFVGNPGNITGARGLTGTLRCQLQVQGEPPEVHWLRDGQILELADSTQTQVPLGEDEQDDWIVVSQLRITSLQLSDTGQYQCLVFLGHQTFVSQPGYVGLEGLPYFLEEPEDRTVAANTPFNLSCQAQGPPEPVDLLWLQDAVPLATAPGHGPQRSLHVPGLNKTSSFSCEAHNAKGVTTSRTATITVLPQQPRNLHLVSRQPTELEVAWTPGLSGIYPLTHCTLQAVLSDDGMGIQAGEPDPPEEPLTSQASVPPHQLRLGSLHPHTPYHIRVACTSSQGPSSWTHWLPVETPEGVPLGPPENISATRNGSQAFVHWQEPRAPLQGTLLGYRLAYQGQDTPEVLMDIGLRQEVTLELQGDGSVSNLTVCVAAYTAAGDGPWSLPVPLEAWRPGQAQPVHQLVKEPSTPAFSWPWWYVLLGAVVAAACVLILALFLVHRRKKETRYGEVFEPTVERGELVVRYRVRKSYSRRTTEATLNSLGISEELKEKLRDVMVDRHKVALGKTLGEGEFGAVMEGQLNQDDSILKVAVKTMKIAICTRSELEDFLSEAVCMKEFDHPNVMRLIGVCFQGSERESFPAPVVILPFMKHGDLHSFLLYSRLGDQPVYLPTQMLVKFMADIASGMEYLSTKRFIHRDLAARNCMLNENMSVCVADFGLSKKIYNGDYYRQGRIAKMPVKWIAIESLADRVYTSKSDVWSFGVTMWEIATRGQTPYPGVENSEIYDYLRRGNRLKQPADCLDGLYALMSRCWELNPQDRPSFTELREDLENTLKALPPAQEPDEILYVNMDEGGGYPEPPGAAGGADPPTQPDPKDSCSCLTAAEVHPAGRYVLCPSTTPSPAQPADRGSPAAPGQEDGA
Procedure: Kinase activity and compound inhibition were investigated using the ^33P-Phosphoryl transfer radiometric kinase assay, performed using the KinaseProfiler™ service of Eurofins Pharma Discovery Services UK Limited. Dose-response experiments were performed using nine compound concentrations in a 96-well microtiter plate. For each assay, all compounds were prepared to a 50× final assay concentration (50 μM) in 100% DMSO, then diluted in a half-log series, with the final top concentration at 1 μM. This working stock of the compound was added to the assay well as the first component in the reaction, followed by the remaining components as detailed in the following assay protocols below. The positive control wells (100% kinase activity) contain all components of the reaction including 2% DMSO (control for solvent effects), except the compound of interest. Blank wells contain all components of the reaction, with the reference inhibitor, staurosporine. This reference compound was used to abolish kinase activity and generated the 0% kinase activity base-line. IC50 values were calculated by nonlinear regression analysis using the sigmoidal dose-response (variable slope) curve fit on XLFit version 5.3 (ID Business Solutions).
Kinase activity and compound inhibition were also investigated using the HTRF® KinEase assay (Cisbio Cat #62TKOPEB) per manufacturer's instructions. In short, compounds were delivered in 300 nL volumes at 10 different concentrations in DMSO (3% final) to empty 384-well assay plates (Corning cat #3824). A mixture of enzyme, 1 μM biotinylated peptide substrate, and buffer in 10 μL volume was added. The assay was started upon the addition of ATP (at Km). The 10 μL reaction was incubated at room temperature. The reaction was stopped upon the addition of detection buffer containing streptavidin-XL665 (5 μL) and TK antibody-Eu3+(5 μL). After a 60 min incubation at room temperature, the fluorescence at 665 nm and 620 nm was read on an Envision microplate reader (Perkin Elmer).
Kinase activity normalized to DMSO (100% activity) and reference compound at 1 μM and (0% activity) was calculated using the fluorescence ratio […]. IC50 values were calculated by nonlinear regression analysis using a 4-parameter logistic curve fit in ActivityBase XE (IDBS).
Example A-1: Human Axl (residues H473-A894 with Q764R, 161 nM) was incubated with 8 mM MOPS pH 7.0, 0.2 mM EDTA, 250 μM KKSRGDYMTMQIG (SEQ ID NO:1), 10 mM magnesium acetate and 10 μM [γ-^33P-ATP]. The reaction was initiated by the addition of the Mg/ATP mix. After incubation for 40 minutes at room temperature, the reaction was stopped by the addition of phosphoric acid to a concentration of 0.5%. A reaction aliquot of 10 μL was then spotted onto a P30 filtermat and washed four times for 4 minutes in 0.425% phosphoric acid and once in methanol prior to drying and scintillation counting. Incorporated ^33P was measured using the Wallac Microbeta scintillation counter (Perkin Elmer).
Example A-2: Human AXL (residues 464-885; CarnaBio, 1 ng/well) was also incubated with enzymatic buffer (Cisbio) supplemented with 5 mM MgCl2, 1 mM DTT, and Supplemental Enzymatic Buffer (SEB; Cisbio). The mixture was added to the pre-plated compounds. The reaction was initiated upon addition of ATP at Km (1.0 μM). The reaction was incubated at room temperature for 50 min and stopped upon the addition of SA-XL665 and TK-antibody both diluted in EDTA-containing kinase detection buffer (Cisbio). The kinase activity was calculated as stated above and the IC50 values were reported.

T1 sequence (P08581 974-1390 limits assumed): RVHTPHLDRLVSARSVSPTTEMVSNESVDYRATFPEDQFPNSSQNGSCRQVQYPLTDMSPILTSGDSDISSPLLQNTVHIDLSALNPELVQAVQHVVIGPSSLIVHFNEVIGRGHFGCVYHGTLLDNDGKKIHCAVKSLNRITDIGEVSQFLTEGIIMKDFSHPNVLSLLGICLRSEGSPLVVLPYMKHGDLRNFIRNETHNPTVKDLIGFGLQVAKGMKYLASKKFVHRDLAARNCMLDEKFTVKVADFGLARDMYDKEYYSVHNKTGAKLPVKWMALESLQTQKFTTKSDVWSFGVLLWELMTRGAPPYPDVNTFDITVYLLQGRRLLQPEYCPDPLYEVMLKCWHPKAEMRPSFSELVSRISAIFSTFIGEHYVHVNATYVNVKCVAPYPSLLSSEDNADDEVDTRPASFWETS

SMILES | IC50 [1] | IC50 [2]
COc1cc2nccc(Oc3ccc(NC(=O)c4c(C)n(C)c(C)c(/C=C/C(C)(C)C)c4=O)cc3F)c2nc1OC [Compound 49, N-[4-[(6,7-Dimethoxy-1,5-naphthyridin-4-yl)oxy]-3-fluorophenyl]-5-[(E)-3,3-dimethylbut-1-enyl]-1,2,6-trimethyl-4-oxopyridine-3-carboxamide] | > 300 nM | ≤ 100 nM
COc1cc2nccc(Oc3ccc(NC(=O)c4cnc(C)c(/C=C/C5CC5)c4O)cc3F)c2nc1OC [Compound 26, 5-[(E)-2-Cyclopropylethenyl]-N-[4-[(6,7-dimethoxy-1,5-naphthyridin-4-yl)oxy]-3-fluorophenyl]-4-hydroxy-6-methylpyridine-3-carboxamide] | ≤ 100 nM | ≤ 100 nM
COc1cc2nccc(Oc3ccc(NC(=O)c4c(C)n(C)c(C)c(C(=O)NC5CC5)c4=O)cc3F)c2nc1OC [Compound 96, 3-N-Cyclopropyl-5-N-[4-[(6,7-dimethoxy-1,5-naphthyridin-4-yl)oxy]-3-fluorophenyl]-1,2,6-trimethyl-4-oxopyridine-3,5-dicarboxamide] | > 300 nM | > 300 nM
COCCOc1cc2nccc(Oc3ccc(NC(=O)c4c(C)nc(C)c(C5=CCOCC5)c4O)cc3F)c2nc1OC [Compound 43, 5-(3,6-Dihydro-2H-pyran-4-yl)-N-[3-fluoro-4-[[6-methoxy-7-(2-methoxyethoxy)-1,5-naphthyridin-4-yl]oxy]phenyl]-4-hydroxy-2,6-dimethylpyridine-3-carboxamide] | ≤ 100 nM | ≤ 100 nM
COCCOc1cc2nccc(Oc3ccc(NC(=O)c4c(O)c(C5=CCOCC5)c(C)[n+](C)c4C)cc3F)c2nc1OC [Compound 44, 5-(3,6-Dihydro-2H-pyran-4-yl)-N-[3-fluoro-4-[[6-methoxy-7-(2-methoxyethoxy)-1,5-naphthyridin-4-yl]oxy]phenyl]-1,2,6-trimethyl-4-oxopyridine-3-carboxamide] | ≤ 100 nM | ≤ 100 nM
COc1cc2nccc(Oc3ccc(NC(=O)c4c(C)nc(C)c(C(=O)NC5CC5)c4O)cc3F)c2nc1OC [Compound 98, 5-N-Cyclopropyl-3-N-[4-[(6,7-dimethoxy-1,5-naphthyridin-4-yl)oxy]-3-fluorophenyl]-4-hydroxy-2,6-dimethylpyridine-3,5-dicarboxamide] | > 300 nM | ≤ 100 nM
COc1cc2nccc(Oc3ccc(NC(=O)c4cnc(C)c(C5=CCCC5)c4O)cc3F)c2cc1OC [Compound 18, 5-(Cyclopenten-1-yl)-N-[4-(6,7-dimethoxyquinolin-4-yl)oxy-3-fluorophenyl]-4-hydroxy-6-methylpyridine-3-carboxamide] | ≤ 100 nM | ≤ 100 nM
COc1cc2nccc(Oc3ccc(NC(=O)c4c(C)n(C)c(C)c(C(=O)O)c4=O)cc3F)c2nc1OC [Compound 92, 5-[[4-[(6,7-Dimethoxy-1,5-naphthyridin-4-yl)oxy]-3-fluorophenyl]carbamoyl]-1,2,6-trimethyl-4-oxopyridine-3-carboxylic acid] | > 300 nM | > 300 nM

Now from value to compound:

IC50 [1] | IC50 [2] | SMILES
≤ 100 nM | ≤ 100 nM | COc1cc2nccc(Oc3ccc(NC(=O)c4cnc(C)c(/C=C/C(C)(C)C)c4O)cc3F)c2cc1OC [Compound 30, N-[4-(6,7-Dimethoxyquinolin-4-yl)oxy-3-fluorophenyl]-5-[(E)-3,3-dimethylbut-1-enyl]-4-hydroxy-6-methylpyridine-3-carboxamide]
≤ 100 nM | ≤ 100 nM | COc1cc2nccc(Oc3ccc(NC(=O)c4cnc(C)c(/C=C/C(C)(C)C)c4O)cc3F)c2nc1OC [Compound 27, N-[4-[(6,7-Dimethoxy-1,5-naphthyridin-4-yl)oxy]-3-fluorophenyl]-5-[(E)-3,3-dimethylbut-1-enyl]-4-hydroxy-6-methylpyridine-3-carboxamide]
≤ 100 nM | ≤ 100 nM | COc1ccc2nccc(Oc3ccc(NC(=O)c4cnc(C)c(C5=CCCC5)c4O)cc3F)c2n1 [Compound 1-7, 5-(Cyclopenten-1-yl)-N-[3-fluoro-4-[(6-methoxy-1,5-naphthyridin-4-yl)oxy]phenyl]-4-hydroxy-6-methylpyridine-3-carboxamide]
≤ 100 nM | ≤ 100 nM | COc1cc2nccc(Oc3ccc(NC(=O)c4c(C)nc(C)c(C5=CCCCC5)c4O)cc3F)c2nc1OC [Compound 2-3, 5-(Cyclohexen-1-yl)-N-[4-[(6,7-dimethoxy-1,5-naphthyridin-4-yl)oxy]-3-fluorophenyl]-4-hydroxy-2,6-dimethylpyridine-3-carboxamide]
≤ 100 nM | ≤ 100 nM | COCCOc1cc2nccc(Oc3ccc(NC(=O)c4cnc(C)c(C5=CCCCC5)c4O)cc3F)c2nc1OC [Compound 34, 5-(Cyclohexen-1-yl)-N-[3-fluoro-4-[[6-methoxy-7-(2-methoxyethoxy)-1,5-naphthyridin-4-yl]oxy]phenyl]-4-hydroxy-6-methylpyridine-3-carboxamide]
≤ 100 nM | ≤ 100 nM | COCCOc1cc2nccc(Oc3ccc(NC(=O)c4c(C)n(C)c(C)c(/C=C/C(C)(C)C)c4=O)cc3F)c2nc1OC [Compound 45, 5-[(E)-3,3-Dimethylbut-1-enyl]-N-[3-fluoro-4-[[6-methoxy-7-(2-methoxyethoxy)-1,5-naphthyridin-4-yl]oxy]phenyl]-1,2,6-trimethyl-4-oxopyridine-3-carboxamide]
≤ 100 nM | ≤ 100 nM | COc1ccc2nccc(Oc3ccc(NC(=O)c4cnc(C)c(C5=CCCCC5)c4O)cc3F)c2n1 [Compound 1-6, 5-(Cyclohexen-1-yl)-N-[3-fluoro-4-[(6-methoxy-1,5-naphthyridin-4-yl)oxy]phenyl]-4-hydroxy-6-methylpyridine-3-carboxamide]
≤ 100 nM | ≤ 100 nM | COc1cc2nccc(Oc3ccc(NC(=O)c4c(C)cc(C)n(C5=CCCC5)c4=O)cc3F)c2nc1OC [Compound 14, 1-(Cyclopenten-1-yl)-N-[4-[(6,7-dimethoxy-1,5-naphthyridin-4-yl)oxy]-3-fluorophenyl]-4,6-dimethyl-2-oxopyridine-3-carboxamide]
